US6984727B1, “Gene involved in brassinosteroid responses” (National Institute of Agrobiological Science, priority 2000, dated 2006)

Test system: second leaf of rice
Assay: leaf blade bend response test (brassinosteroid response test)
Assay type: in vivo
Conditions: cut second leaf germinated in the dark, immersed in 1 ng/ml solution for 48 hours
From the text: The present gene was deduced to be a factor involved in the signal transduction system for plant hormones, taking note of the facts that the present gene was expressed in all plant bodies and that pleiotropic influences resulted from destroying this gene, as well as the possibility that the gene might be a factor involved in the signal transduction system. Presuming that the signal transduction system is that for brassinosteroid hormone in view of the resultant upright form, the inventors performed a leaf blade bend response test as a brassinosteroid response test, by using brassinolide, which is one kind of brassinosteroid hormone. The second leaf of rice which was allowed to germinate in the dark was cut off, and immersed in a 1 ng/ml of brassinosteroid solution for 48 hours.

SMILES: CC(C)[C@H](C)[C@@H](O)[C@H](O)[C@@H](C)[C@H]1CC[C@H]2[C@@H]3COC(=O)[C@H]4C[C@H](O)[C@H](O)C[C@]4(C)[C@H]3CC[C@]12C [brassinolide]
- bending of the leaf blades and leaf sheath junctions (Tos17-insertion mutant individuals (A0369, NC6148)): showed little bending thereof
- bending of the leaf blades and leaf sheath junctions (wild type individuals (Akitakomachi, Nipponbare)): showed bending of the leaf blades and leaf sheath junctions
